Literature values in paper PMC5941251 (Molecular Pharmaceutics, 2018).

risk of anaphylactic shock: 0.05–0.2%
SMILES: CC1(C)C(/C=C/C=C/C=C/C=C2\N(CCCCS(=O)(=O)O)c3ccc4ccccc4c3C2(C)C)=[N+](CCCCS(=O)(=O)[O-])c2ccc3ccccc3c21 [ICG, indocyanine green]
